Test results: patent publication US5493027A, “Anticonvulsive agents and uses thereof” (priority 1993, dated 1996)
Read-outs that look alike come from different tables or passages of the source.

Experiments:
[1] = tested on: quinolinic acid induced seizures; conditions: intracerebroventricular, CD-1 mice (Baron et al., 1990); cited from earlier work
[2] = Rotorod test for neurological deficit (TOX) in mice; type: in vivo, male Carworth Farms number-1 mice; conditions: mouse, in vivo, ip
Procedure: (§1) Compounds were screened for anticonvulsant activity in male Carworth Farms number-1 mice. Test solutions of all compounds were prepared in 30% polyethylene glycol 400, and animals were dosed intraperitoneally at either 30 minutes or 4 hours prior to testing. Testing was conducted on four mice at each of three dose levels (30, 100, and 300 mg/kg).
(§2) Animals were also tested for neurological deficit using the rotorod. After treatment, the animal was placed on a 1 inch diameter knurled plastic rod rotating at 6 rpm. Neurologic deficit was defined as the failure of the animal to remain on the rod for 1 minute.
as §1, with “Biological testing--Compounds” for “Compounds”, “number-one” for “number-1”, “min” for “minutes”, “h” for “hours”
(§3) Animals were also tested for neurological deficit using the rotorod. After treatment, the animal was placed on a 1 inch diameter knurled plastic rod rotating at 6 rpm. Neurologic deficit was defined as the failure of the animal to remain on the rod for 1 min.

[3] = tested on: pentylenetetrazole (Metrazol) induced seizures; assay: Subcutaneous pentylenetetrazole (Metrazol) seizure threshold test (Met) in mice; type: in vivo, male Carworth Farms number-1 mice; conditions: for minimal effective dose: Mus musculus, ip; for (Maximum Ineffective) Intraperitoneal Dose, Met: Table 7, value in parentheses = maximum ineffective dose; for Sc MET / Sc MET repeated: protected: mice i.p.; for Sc MET repeated: protected: repeat
Procedure: as §1
(§4) In the subcutaneous pentylenetetrazole (Metrazol) seizure threshold test(met), 85 mg/kg pentylenetetrazole was administered as a 0.5% solution in the posterior midline. Protection in this test was defined as a failure to observe a single episode of clonic spasms of at least 5 s duration during the 30 minute period following administration of the convulsive agent.
as §1, with “Biological testing--Compounds” for “Compounds”, “number-one” for “number-1”, “min” for “minutes”, “h” for “hours”
as §4, with “test (Met),” for “test(met),”, “min” for “minute”

[4] = tested on: maximal electroshock seizures (MES); assay: animal or person; type: in vivo, male Carworth Farms number-1 mice; conditions: for minimal effective dose: Mus musculus, ip; for MES: mice i.p.
Procedure: as §1
(§5) Maximal electroshock seizures (MES) were elicited with a 60 cycle alternatiing current of 50-mA intensity (five to seven times that necessary to evoke minimal electroshock threshold seizures). Current was delivered via corneal electrodes for 0.2 s. A drop of 0.9% saline was instilled in the eye prior to application of electrodes. Abolition of the hindlimb tonic extension component of the seizure was defined as protection in the MES test.
as §1, with “Biological testing--Compounds” for “Compounds”, “number-one” for “number-1”, “min” for “minutes”, “h” for “hours”
as §5, with “alternating” for “alternatiing”

[5] = tested on: seizures induced by electroshock and pentylenetetrazole; assay: Anticonvulsant testing, overall (MES and Met); type: in vivo, male Carworth Farms number-1 mice; conditions: for minimal effective dose: Mus musculus, ip, read-out: dose level with anticonvulsant activity (test not given)
Procedure: as §1, §5, §4
as §1, with “Biological testing--Compounds” for “Compounds”, “number-one” for “number-1”, “min” for “minutes”, “h” for “hours”
as §5, with “alternating” for “alternatiing”
as §4, with “test (Met),” for “test(met),”, “min” for “minute”

[6] = target: T1, strychnine-insensitive glycine binding site of the NMDA receptor (Rattus norvegicus, UniProt P35439); assay: Inhibition of [3H]glycine specific binding (strychnine-insensitive) in rat cerebral cortex membranes; conditions: 10 uM compound
T1 construct: Membranes were prepared from rat cerebral cortex; from tissue; host or cells: rat cerebral cortex, "buffy coat" membranes
Procedure: Binding Studies--Inhibition of [^3 H]glycine specific binding was assayed using [^3 H]glycine (43 Ci/mmol) obtained from DuPont-New England Nuclear. […] Membranes were prepared from rat cerebral cortex and assays were conducted in Na-free 50 mM HEPES (Sigma) at pH 7.4. Membranes were incubated in a final volume of 1 ml with 20 nM [^3 H]glycine and a 10 uM concentration of the test compound. Although experience has shown that [^3 H]glycine binding in this preparation is strychnine insensitive, 10 uM strychnine was added to the assay mixtures to eliminate the possibility that any effects studied could be mediated through a strychnine-sensitive process. Incubation was continued for 20 min at 4° C. Non-specific binding was determined in the presence of 1 mM glycine and subtracted. All conditions were tested in triplicate in 3 different assays. Binding was terminated using a Brandel M-24C cell harvester employing rapid filtration through GF/C glass fiber filters pre-soaked in 1% (V/V) polyethylenimine. Filters were washed twice with 5 ml buffer cooled to 4° C. Radioactivity bound to the filters was determined with a Beckman LS-500OTD liquid scintillation counter.

[7] = tested on: potentiating action of glycine on current elicited by NMDA; conditions: whole cells (Huettner, 1989); cited from earlier work
[8] = target: strychnine-insensitive glycine binding site; conditions: see also Kemp et al., 1988; cited from earlier work
anticonvulsant activity = conditions: Wong et al., 1986; Singh et al., 1990; cited from earlier work
kainate receptor = conditions: cited from earlier work
NMDA receptor = conditions: cited from earlier work
[9] = target: T1, strychnine-insensitive glycine binding site of the NMDA receptor; conditions: literature value of the standard; read-out: IC50 for glycine binding in this test system; cited from earlier work
[10] = tested on: NMDA-associated glycine site; conditions: Xenopus oocytes injected with rat brain mRNA (Kleckner and Dingledine, 1989); cited from earlier work
quisqualate receptor = conditions: cited from earlier work
[11] = tested on: neurological deficit (rotorod); assay: Rotorod test for neurological deficit (TOX) in mice; type: in vivo, male Carworth Farms number-1 mice; conditions: mouse, in vivo
Procedure: as §1, §2
as §1, with “Biological testing--Compounds” for “Compounds”, “number-one” for “number-1”, “min” for “minutes”, “h” for “hours”
as §3

[12] = Solubility in aqueous solutions and in chloroform and other non-polar solvents; type: physicochemical
[13] = tested on: inhibitory (strychnine-sensitive) glycine receptors in the spinal cord; conditions: White et al. 1989; Huettner 1989; cited from earlier work
[14] = Table 7, value without parentheses = effective dose, read-out: Effective Intraperitoneal Dose, Met
[15] = mice, intraperitoneal, read-out: dose active in Met test
[16] = Table 7, value without parentheses = effective dose, read-out: Effective Intraperitoneal Dose, MES
[17] = mice, intraperitoneal, read-out: dose active in MES test

O=C(O)c1cc(O)c2c(Cl)cc(Cl)cc2n1 [5,7-di-Cl-kyn-2-COOH]
protection against quinolinic acid induced seizures [1]: protect against quinolinic acid induced seizures | NOAEL [2]: 300 mg/kg | minimal effective dose [3, 14]: 300 mg/kg | minimal effective dose [3, 15]: 300 mg/kg | Met activity ([3]; mice, intraperitoneal): mild Met activity

CCOC(=O)c1cc(O)c2c(F)cc(F)cc2n1 [5,7-di-F-kyn-2-ethyl ester]
NOAEL [2]: 300 mg/kg | (Maximum Ineffective) Intraperitoneal Dose, Met [3]: 300 mg/kg | minimal effective dose [4, 16]: 300 mg/kg | minimal effective dose [4, 17]: 300 mg/kg | MES activity ([4]; mice, intraperitoneal): MES activity at this dose level

O=C(O)c1cc2cc(F)ccc2[nH]1 [5-F-indole-2-COOH, 5-fluoro-indole-2-carboxylic acid]
minimal effective dose [5]: 100 mg/kg | NOAEL ([2]; Table 7, value in parentheses = maximum ineffective dose, read-out: (Maximum Ineffective) Intraperitoneal Dose, Rotorod): 300 mg/kg | (Maximum Ineffective) Intraperitoneal Dose, Met [3]: 300 mg/kg | [3H]glycine binding inhibition [6]: most potent inhibitor of [^3 H]glycine binding in this group | inhibition of potentiating action of glycine on NMDA current [7]: inhibit competitively the potentiating action of glycine | minimal effective dose ([4]; read-out: Effective Intraperitoneal Dose, MES): 100 mg/kg | minimal effective dose ([4]; read-out: dose active in MES test): 100 mg/kg

CCCCOC(=O)c1cc2cc(F)ccc2[nH]1 [5-F-indole-2-butyl ester, butyl ester of 5-fluoro-indole-2-carboxylic acid]
minimal effective dose ([5]; mice, intraperitoneal): 300 mg/kg | NOAEL [2]: 300 mg/kg | minimal effective dose [3, 14]: 300 mg/kg | minimal effective dose [3, 15]: 300 mg/kg | [3H]glycine binding inhibition [6]: binding characteristics were similar to those of the ethyl ester

CCOC(=O)c1cc2cc(F)ccc2[nH]1 [5-F-indole-2-ethyl ester, 5-fluoro-indole-2-ethyl carboxylate]
NOAEL [2]: 300 mg/kg | minimal effective dose [3, 14]: 300 mg/kg | minimal effective dose [3, 15]: 300 mg/kg | minimal effective dose [4, 16]: 100 mg/kg | minimal effective dose [4, 17]: 100 mg/kg

O=C(O)c1cc(O)c2ccc(Cl)cc2n1 [7-Cl-Kyn, 7-chloro-kynurenic acid]
IC50 [8]: 0.56 µM | anticonvulsant activity (words, literature) (anticonvulsant activity): demonstrate anticonvulsant activity | IC50 (kainate receptor; see also Kemp et al., 1988, unit inferred): > 1000 µM | IC50 (NMDA receptor; see also Kemp et al., 1988): 169 µM | IC50 [9]: 0.27 to 0.56 µM | more potent as antagonist at the NMDA-associated glycine site than at the receptor mediating kainate currents [10]: approximately 40 fold | IC50 (quisqualate receptor; see also Kemp et al., 1988): 153 µM

C[C@]12N[C@H](Cc3ccccc31)c1ccccc12 [MK-801]
anticonvulsant activity (words, literature) (anticonvulsant activity): demonstrate anticonvulsant activity

CCOC(=O)c1cc(NC)c2c(Cl)cc(Cl)cc2n1 [ethyl 4-methylamino-5,7-dichloro-2-quinoline carboxylate]
minimal effective dose ([5]; mice, intraperitoneal): ≤ 100 mg/kg | CLASS ([5]; Phase I Identification: mice, i.p., classes not defined in the patent): 1 | anticonvulsant activity (words) ([5]; mice, intraperitoneal): high anticonvulsant activity | anticonvulsant activity (words) ([5]; mice, intraperitoneal, listed as ethyl 4-methylamino-5,7-dichloro-2-quinoline carboxylate): most potent anticonvulsant | anticonvulsant activity (words) ([5]; mice, intraperitoneal, listed as ethyl-4-methylamino-5,7-dichloro-2-quinoline carboxylate): particularly effective anticonvulsant agent | NOAEL [2]: 300 mg/kg | Sc MET repeated: toxic ([11]; 30 mg/kg): 0/4 | Sc MET repeated: toxic ([11]; 100 mg/kg): 0/4 | Sc MET repeated: toxic ([11]; 300 mg/kg): 0/4 | Sc MET ([3]; 30 minutes, 30 mg/kg): 1/1 | Sc MET ([3]; 30 minutes, 100 mg/kg): 1/1 | Sc MET ([3]; 30 minutes, 300 mg/kg): 1/1 | Sc MET ([3]; 4 hours, 30 mg/kg): 0/1 | Sc MET ([3]; 4 hours, 100 mg/kg): 0/1 | Sc MET ([3]; 4 hours, 300 mg/kg): 0/1 | minimal effective dose [3, 14]: 30 mg/kg | minimal effective dose [3, 15]: 30 mg/kg | Sc MET repeated: protected ([3]; 30 minutes, 30 mg/kg): 1/4 | Sc MET repeated: protected ([3]; 30 minutes, 100 mg/kg): 2/4 | Sc MET repeated: protected ([3]; 30 minutes, 300 mg/kg): 4/4 | solubility in chloroform and other non-polar solvents [12]: appreciably soluble in chloroform and other non-polar solvents | [3H]glycine binding inhibition [6]: poor binding inhibition | MES ([4]; 30 minutes, 30 mg/kg): 0/1 | MES ([4]; 30 minutes, 100 mg/kg): 0/3 | MES ([4]; 30 minutes, 300 mg/kg): 0/1 | MES ([4]; 4 hours, 30 mg/kg): 0/1 | MES ([4]; 4 hours, 100 mg/kg): 0/3 | MES ([4]; 4 hours, 300 mg/kg): 0/1 | minimal effective dose [4, 17]: 30 mg/kg

O=C(O)c1cc2ccccc2[nH]1 [indole-2-carboxylic acid]
activity at strychnine-sensitive sites [13]: inactive

O=C(O)c1cc(O)c2ccccc2n1 [kynurenic acid, 4-hydroxy-2-quinolinecarboxylic acid]
activity at strychnine-sensitive sites [13]: inactive | excitatory amino acid antagonist activity at kainate receptors (kainate receptor): nonselective excitatory amino acid antagonist | excitatory amino acid antagonist activity at NMDA receptors (NMDA receptor): nonselective excitatory amino acid antagonist | excitatory amino acid antagonist activity at quisqualate receptors (quisqualate receptor): nonselective excitatory amino acid antagonist
